Data published in patent US10456385B2 (priority 2011, dated 2019).

Tested on: Male ICR mice
Assay: Novel Object Recognition Test (NORT) in MK-801-induced amnesia mice
Assay type: in vivo
Settings: Mus musculus, po, unit mg/kg from method, read-out: MED (dose at which NORT relative RI is given)

Structure (SMILES) | minimal effective dose [mg/kg]
O=C(NC1CN2CCC1CC2)c1ccc(=O)n(-c2ncc(Cl)s2)c1 (centres unmarked) [Example 26, N-(1-azabicyclo[2.2.2]octan-3-yl)-1-(5-chloro-2-thiazolyl)-6-oxo-3-pyridinecarboxamide] | 0.3
O=C(NC1CN2CCC1CC2)c1ccc(=O)n(-c2ncc(C3CCCCC3)s2)c1 (centres unmarked) [Example 24, N-(1-azabicyclo[2.2.2]octan-3-yl)-1-(5-cyclohexyl-2-thiazolyl)-6-oxo-3-pyridinecarboxamide] | 0.03
CC(C)(C)c1cnc(-n2cc(C(=O)NC3CN4CCC3CC4)ccc2=O)s1 (centres unmarked) [Example 20, N-(1-azabicyclo[2.2.2]octan-3-yl)-1-(5-tert-butyl-2-thiazolyl)-6-oxo-3-pyridinecarboxamide] | 0.3
CC(C)c1cnc(-n2cc(C(=O)NC3CN4CCC3CC4)ccc2=O)s1 (centres unmarked) [Example 17, N-(1-azabicyclo[2.2.2]octan-3-yl)-6-oxo-1-(5-propan-2-yl-2-thiazolyl)-3-pyridinecarboxamide] | 0.3
O=C(N[C@H]1CN2CCC1CC2)c1ccc(=O)n(-c2nccs2)c1 [Example 2, N-[(3R)-1-azabicyclo[2.2.2]octan-3-yl)-6-oxo-1-(2-thiazolyl)-3-pyridinecarboxamide] | 0.01
Cc1cnc(-n2cc(C(=O)N[C@H]3CN4CCC3CC4)ccc2=O)s1 [Example 11, N-[(3R)-1-azabicyclo[2.2.2]octan-3-yl]-1-(5-methyl-2-thiazolyl)-6-oxo-3-pyridinecarboxamide] | 0.03
CCc1cnc(-n2cc(C(=O)NC3CN4CCC3CC4)ccc2=O)s1 (centres unmarked) [Example 13, N-(1-azabicyclo[2.2.2]octan-3-yl)-1-(5-ethyl-2-thiazolyl)-6-oxo-3-pyridinecarboxamide] | 0.3
O=C(NC1CN2CCC1CC2)c1ccc(=O)n(-c2nccs2)c1 (centres unmarked) [Example 1, N-(1-azabicyclo[2.2.2]octan-3-yl)-6-oxo-1-(2-thiazolyl)-3-pyridinecarboxamide] | 0.03
CCc1cnc(-n2cc(C(=O)N[C@H]3CN4CCC3CC4)ccc2=O)s1 [Example 14, N-[(3R)-1-azabicyclo[2.2.2]octan-3-yl]-1-(5-ethyl-2-thiazolyl)-6-oxo-3-pyridinecarboxamide] | 0.03
O=C(NC1CN2CCC1CC2)c1ccc(=O)n(-c2nc3ccccc3s2)c1 (centres unmarked) [Example 33, N-(1-azabicyclo[2.2.2]octan-3-yl)-1-(1,3-benzothiazole-2-yl)-6-oxo-3-pyridinecarboxamide] | 0.01
Cc1cnc(-n2cc(C(=O)NC3CN4CCC3CC4)ccc2=O)s1 (centres unmarked) [Example 10, N-(1-azabicyclo[2.2.2]octan-3-yl)-1-(5-methyl-2-thiazolyl)-6-oxo-3-pyridinecarboxamide] | 0.3
